Assay results reported in ChEMBL document CHEMBL5113450, “Discovery of potent dual ligands for dopamine D4 and σ1 receptors” (Bioorg Med Chem, 2022).
The source made the active and inactive calls. No cut-off for these calls is given here.

Key:
[1] = target: D(1A) dopamine receptor (Homo sapiens) (UniProt P21728); assay: Displacement of [3H]SCH 23390 from recombinant human D1 receptor at 3 uM measured after 60 mins by scintillation counting analysis
[2] = target: Voltage-gated inwardly rectifying potassium channel KCNH2 (Homo sapiens, UniProt Q12809); assay: Displacement of [3H]dofetilide from recombinant human ERG stably expressed in HEK293 cell membranes measured after 60 mins by scintillation counting analysis; type: toxicity, Membrane
Chain of Voltage-gated inwardly rectifying potassium channel KCNH2 (Q12809 whole entry): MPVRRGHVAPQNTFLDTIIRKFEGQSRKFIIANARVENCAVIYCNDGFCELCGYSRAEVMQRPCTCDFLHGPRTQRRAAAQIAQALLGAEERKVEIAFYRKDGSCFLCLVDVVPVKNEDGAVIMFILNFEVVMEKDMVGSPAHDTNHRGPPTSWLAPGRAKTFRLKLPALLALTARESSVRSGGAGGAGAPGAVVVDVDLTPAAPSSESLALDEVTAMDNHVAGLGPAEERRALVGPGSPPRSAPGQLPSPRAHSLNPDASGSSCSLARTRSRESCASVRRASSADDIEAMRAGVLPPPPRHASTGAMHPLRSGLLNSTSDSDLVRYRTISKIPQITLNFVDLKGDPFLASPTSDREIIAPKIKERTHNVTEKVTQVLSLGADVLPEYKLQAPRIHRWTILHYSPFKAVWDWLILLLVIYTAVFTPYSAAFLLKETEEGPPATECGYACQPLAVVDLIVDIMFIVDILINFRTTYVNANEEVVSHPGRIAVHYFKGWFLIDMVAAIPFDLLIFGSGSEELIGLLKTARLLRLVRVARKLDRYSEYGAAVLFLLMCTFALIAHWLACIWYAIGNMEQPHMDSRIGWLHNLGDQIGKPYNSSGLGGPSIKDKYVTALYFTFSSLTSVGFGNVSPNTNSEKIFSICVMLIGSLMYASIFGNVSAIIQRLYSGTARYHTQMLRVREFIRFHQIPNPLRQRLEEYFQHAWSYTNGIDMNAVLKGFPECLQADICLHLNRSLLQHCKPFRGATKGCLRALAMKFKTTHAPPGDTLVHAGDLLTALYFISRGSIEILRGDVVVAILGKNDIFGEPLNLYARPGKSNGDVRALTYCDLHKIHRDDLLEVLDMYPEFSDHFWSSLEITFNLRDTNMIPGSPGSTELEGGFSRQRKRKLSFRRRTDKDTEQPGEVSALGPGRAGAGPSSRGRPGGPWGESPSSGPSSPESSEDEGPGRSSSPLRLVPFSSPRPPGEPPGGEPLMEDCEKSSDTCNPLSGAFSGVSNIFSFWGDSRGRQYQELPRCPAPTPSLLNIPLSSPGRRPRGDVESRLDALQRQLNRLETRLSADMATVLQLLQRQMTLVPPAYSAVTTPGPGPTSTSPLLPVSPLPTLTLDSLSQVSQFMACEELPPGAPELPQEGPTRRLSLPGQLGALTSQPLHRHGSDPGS

[3] = target: Sigma intracellular receptor 2 (Homo sapiens) (UniProt Q5BJF2); assay: Displacement of [3H]-DTG/(+) pentazocine from human sigma2 receptor at 3 uM measured after 60 mins by scintillation counting analysis
Chain of Sigma intracellular receptor 2 (Homo sapiens) (Q5BJF2 whole entry): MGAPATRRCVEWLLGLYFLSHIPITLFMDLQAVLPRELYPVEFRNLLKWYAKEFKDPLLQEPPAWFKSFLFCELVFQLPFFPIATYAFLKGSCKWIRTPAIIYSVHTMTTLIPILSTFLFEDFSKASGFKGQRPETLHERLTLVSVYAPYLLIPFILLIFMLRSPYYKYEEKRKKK

D(3) dopamine receptor = D(3) dopamine receptor (Homo sapiens, UniProt P35462); assay: Displacement of [3H]methyl-spiperone from recombinant human D3 receptor measured after 60 mins by scintillation counting analysis
Chain of D(3) dopamine receptor (P35462 whole entry): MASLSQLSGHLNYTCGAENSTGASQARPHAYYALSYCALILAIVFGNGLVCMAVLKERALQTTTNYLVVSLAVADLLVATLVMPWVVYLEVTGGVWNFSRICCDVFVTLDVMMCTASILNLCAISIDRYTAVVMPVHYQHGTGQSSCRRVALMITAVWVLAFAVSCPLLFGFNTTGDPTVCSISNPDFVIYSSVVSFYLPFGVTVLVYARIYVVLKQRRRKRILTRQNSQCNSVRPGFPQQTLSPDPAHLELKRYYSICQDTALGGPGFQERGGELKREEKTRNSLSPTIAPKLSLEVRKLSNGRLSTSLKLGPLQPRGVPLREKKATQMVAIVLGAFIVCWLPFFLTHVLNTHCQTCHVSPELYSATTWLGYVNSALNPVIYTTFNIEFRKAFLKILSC

D(2) dopamine receptor = D(2) dopamine receptor (Homo sapiens, UniProt P14416); assay: Displacement of [3H]methyl-spiperone from recombinant human D2S receptor measured after 60 mins by scintillation counting analysis
Chain of D(2) dopamine receptor (P14416 whole entry): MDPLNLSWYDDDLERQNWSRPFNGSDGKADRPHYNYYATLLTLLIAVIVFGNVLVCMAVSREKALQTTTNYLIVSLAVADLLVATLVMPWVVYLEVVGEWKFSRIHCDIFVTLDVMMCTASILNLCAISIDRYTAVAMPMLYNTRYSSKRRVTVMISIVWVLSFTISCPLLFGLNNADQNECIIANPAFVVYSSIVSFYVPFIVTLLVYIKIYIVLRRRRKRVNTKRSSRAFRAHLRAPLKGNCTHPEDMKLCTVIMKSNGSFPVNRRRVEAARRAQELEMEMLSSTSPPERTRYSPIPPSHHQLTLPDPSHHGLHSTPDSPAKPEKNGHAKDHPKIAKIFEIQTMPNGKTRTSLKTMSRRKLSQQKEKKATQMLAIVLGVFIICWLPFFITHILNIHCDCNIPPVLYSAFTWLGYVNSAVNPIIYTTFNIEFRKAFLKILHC

Chain of D(1A) dopamine receptor (Homo sapiens) (P21728 whole entry): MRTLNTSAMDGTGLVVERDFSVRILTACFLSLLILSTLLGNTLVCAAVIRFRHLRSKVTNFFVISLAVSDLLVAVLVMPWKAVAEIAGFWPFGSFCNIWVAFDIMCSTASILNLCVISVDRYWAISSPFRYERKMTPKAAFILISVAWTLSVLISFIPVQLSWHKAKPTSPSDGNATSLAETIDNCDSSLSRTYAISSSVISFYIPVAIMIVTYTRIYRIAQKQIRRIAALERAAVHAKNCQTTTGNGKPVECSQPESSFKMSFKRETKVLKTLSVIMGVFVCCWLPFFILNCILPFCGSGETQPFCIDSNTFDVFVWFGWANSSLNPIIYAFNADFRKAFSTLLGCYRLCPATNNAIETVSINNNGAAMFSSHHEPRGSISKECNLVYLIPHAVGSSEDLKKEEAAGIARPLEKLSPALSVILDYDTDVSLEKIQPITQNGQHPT

- Activity [1]: Active
- Activity [3]: Active
- Ki (D(3) dopamine receptor): > 10 µM
- Ki (D(2) dopamine receptor): 6.3 µM
SMILES: c1ccc(Cc2cn(C3CCN(Cc4ccccc4)CC3)nn2)cc1
- Ki [2]: 4.6 µM
